# Measured values reported in patent EP0400480A1, “A method for enhancing the cytotoxicity of anthracyclines through photoactivation” (CONSIGLIO NAZIONALE DELLE RICERCHE, priority 1989, dated 1990).
# Columns and labels:
# FRT L5 cells [1] = assay: Growth curve (count of vital cells) of FRT L5 cells after 2 hr incubation with or without 595 nm irradiation (Example 1); assay type: cell-based, Fisher Rat; settings: 50 ng/ml, irradiation 595 nm 245 J/cm², curve (f) compared with non-irradiated curve (b)
# Protocol: A culture of Fisher Rat Thyroid cells classified as FRT L5 was performed routinely in Petri dishes in a Ham F-12 medium modified by Coon (K.C. Biological Co.) with addition of 5% calf serum (Grand Island Biological Co.) by incubation at 37°C in an atmosphere with 5% CO₂.
# For determining the growth curve a suitable number of the colture Petri dishes was trypsinized and the cells were re-suspended in growth medium in such a way as to have a cell concentration of appoximately 10⁶/ml. Suspension volumes containing a number of cells of the order of 10⁵ were poured into dishes of 60 mm diameter and covered with 3 ml culture medium, maintaining the cell suspension under stirring in order to have a uniform cell distribution in the various dishes.
# The dishes were put in an incubator for 24 hrs and then incubated for 2 hrs with fresh reaction medium containing […] (5-ID).
# 5-iminodaunomicin was prepared in a 1.78.10⁻⁵M solution in dejonized bidistilled water and was added to the various dishes in such amounts as to have concentrations of 0,50, 200, 400 and 1000 ng/ml. Incubation of these dishes was performed in the dark while at the same time a dish prepared in the same way and having a 5-iminodaunomicin concentration of 50 ng/ml was incubated under red light radiation of 595 nm wave length. […]
# FRT L5 cells [2] = assay: Cell survival of FRT L5 cells relative to non-irradiated culture after incubation with 595 nm irradiation (Examples 2 and 3); assay type: cell-based, Fisher Rat; settings: 1000 ng/ml
# Protocol: Following the method of Example 1, FRT L5 cells were resuspended, distributed in dishes and incubated for 72 hrs. At this point 5-ID was introduced in the dishes in an amount such as to have a concentration in the medium of 1000 ng/ml and the dishes were incubated for 2 hrs. During this period the various dishes were irradiated with red light of 595 nm with constant radiation density on the dish of an average of 34 mW/cm² for times of from 15 to 120 minutes.
# Each irradiation period was selected so that its termination coincided with the incubation end.
# The average dose of light administered on the dish in 120 minutes was 245 J/cm².
# 2, in which the percentage of cell survival refferred to a non-irradiated culture is represented as a function of the light dose in J/cm².
# Example 2 was repeated, except that each dish was irradiated for only 15 minute during the 2 hr incubation with 5-ID.
# Said 15 minute irradiations were started with increasing delays with respect to the start of the incubation, and precisely with delays of 0,15, 30, 45, 60, 75, 90 and 105 minutes.
# The results are reported in figure 3, in which the percentage cell survival, with respect to non- irradiated cultures, is reported as a function of the delay from the irradiation start with respect to the start of the incubation with 5-ID.
structure (smiles),measurement,setting,value
"COc1cccc2c1C(=N)c1c(O)c3c(c(O)c1C2=O)C[C@@](O)(C(C)=O)C[C@@H]3O[C@H]1C[C@H](N)[C@H](O)[C@H](C)O1 [5-ID, 5-iminodaunomicin]",lowering the number of vital cell,FRT L5 cells [1],one order of magnitude
same,lethal effect (cell survival referred to a non-irradiated culture),"FRT L5 cells [2]; 2 hr incubation, irradiation 595 nm, 34 mW/cm², short time (ca. 30 minutes)",high lethal effect
same,effect of incubation without irradiation,"FRT L5 cells [2]; without irradiation, short time, see curve (e) of figure 1",does not have a measurable effect
